# In patent US20230293629A1, “METHODS FOR ATTENUATING RELEASE OF INFLAMMATORY MEDIATORS AND PEPTIDES USEFUL THEREIN” (BIOMARCK PHARMACEUTICALS LTD., priority 2006, published 2023):
# What was measured:
# PP1 = test: Protein phosphatase activity assay in NHBE cell lysates, PP1; type: cell-based, human; conditions: NHBE cells after 8-Br-cGMP
# Description: (§1) Protein Phosphatase Activity Assay—PP1 and PP2A activities were measured using a protein phosphatase assay system (Life Technologies, Inc.) as known in the art with slight modification. Huang et al., Adv. Exp. Med Biol. 396, 209-215 (1996). Briefly, NHBE cells were treated with 8-Br-cGMP or medium alone for 5 min. Cells were then scraped into a lysis buffer (50 mM Tris-HCl (pH 7.4), 0.1% β-mecaptoethanol, 0.1 mM EDTA, 1 mM benaamidine, 10 μg/ml pepstatin A, 10 μg/ml leupeptin) and disrupted by sonication for 20 s at 4° C. Cell lysates were centrifuged and the supernatants saved for phosphatase activity assay. The assay was performed using ^32P-labeled phosphorylase A as a substrate. Released ^32Pi was counted by scintillation. The protein concentration of each sample was determined by the Bradford assay. PP2A activity was expressed as the sample total phosphatase activity minus the activity remaining in the presence of 1 nM okadaic acid. PP1 activity was expressed as the difference between the activities remaining in the presence of 1 nM and 1 μM okadaic acid, respectively. Protein phosphatase activities were reported as nmol of Pi released per min/mg total protein.
# PP2A = test: Protein phosphatase activity assay in NHBE cell lysates, PP2A; type: cell-based, human
# Description: as §1
# [1] = system: isolated human neutrophils; test: MPO secretion from isolated human neutrophils stimulated with PMA + 8-Br-cGMP (FIG. 7, 8, 9); type: cell-based; conditions: FIG. 9; 8-Br-cGMP alone, until co-stimulation with PMA
# [2] = system: isolated canine neutrophils; test: MPO secretion from isolated canine neutrophils stimulated with PMA + 8-Br-cGMP (FIG. 6, 10, 11); type: cell-based; conditions: FIG. 11; 8-Br-cGMP alone, until co-stimulation with PMA
# Text: The invention also relates to a new method for blocking any cellular exocytotic secretory process, especially those releasing inflammatory mediators from granules contained within inflammatory cells, whose stimulatory pathways involve the protein kinase C (PKC) substrate MARCKS protein and release of contents from membrane-bound vesicles. Specifically, the inventors have shown that stimulated release of the inflammatory mediator myloperoxidase from human (FIG. 6) or canine (FIG. 7) neutrophils can be blocked in a concentration-dependent manner by the MANS peptide. […] 10 or 100 μM of a control peptide (RNS) has no effect on MPO secretion. In FIG. 7, isolated neutrophils were stimulated to secrete myloperoxidase (MPO) with 100 nM PMA and 10 μM 8-Br-cGMP. […] 10 or 100 μM of a control peptide (RNS) has no effect on MPO secretion. Thus, the peptide may be used therapeutically to block the release of mediators of inflammation secreted from infiltrating inflammatory cells in any tissues. Many of these released mediators are responsible for the extensive tissue damage observed in a variety of chronic inflammatory diseases (i.e., respiratory diseases such as asthma, chronic bronchitis and COPD, inflammatory bowel diseases including ulcerative colitis and Crohn's disease, autoimmune diseases, skin diseases such as rosacea, eczema; and severe acne, arthritic and pain syndromes such as rheumatoid arthritis and fibromyalgia). This invention may be useful for treating diseases such as arthritis, chronic bronchitis, COPD and cystic fibrosis. This invention is accordingly useful for the treatment in both human and animal diseases, especially those affecting equines, canines, felines, and other household pets.
# FIGS. 8-12 show MPO secretion for both humans and canines. In all of these experiments, isolated neutrophils were stimulated with LPS at a concentration of 1×10^−6 M for 10 minutes at 37° C. prior to adding the stimuli as indicated in the figures. The LPS primes the cells so they can respond to a secretagogue.
# Isolation of PMNs from canine blood—The steps involved in isolating PMN include collecting 10 ml ACD anticoagulated blood. Then layering 5 ml on 3.5 ml PMN isolation media while ensuring that the PMN isolation media (IM) was at room temperature (RI). Next, the blood was centrifuged at room temperature for 30′, 550×g at 1700 RPMs. The low lower white band was transferred into 15 ml conical centrifuge tube (CCFT). Next, 2V HESS with 10% fetal bovine serum […] was added and centrifuged at room temperature for 10′, 400×g at 1400 RPMs. The pellet was then resuspended in 5 ml 1-1ESS with PBS. The cell suspension was added to 50 ml CCFT containing 20 ml of ice cold 0.88% NH4Cl and inverted two to three times. The resulting product was centrifuged for 10′, 800×g at 2000 RPMs, then aspirated and resuspended in 5 ml HBSS with FBS. The prep was examined by counting and cytospin and preferably for whole blood, the cell number should be between 10^9-10^11 cells and for PMNs, cell number should be between 2-4×10^7 cells. See generally, Wang et al., J. Immunol., “Neutrophil-induced changes in the biomechanical properties of endothelial cells: roles of ICAM-1 and reactive oxygen species,” 6487-94 (2000).
# MPO Colorimetric Enzyme Assay—Samples were assayed for MPO activity in 96 well round bottom microtiter plates using a sandwich ELISA kit (R & D Systems, Minneapolis, Minn.). […]
# [3] = system: MARCKS phosphorylation in NHBE cells; test: MARCKS phosphorylation in NHBE cells, radiolabeled immunoprecipitation assay; type: cell-based, human; conditions: 1 μM 8-Br-cGMP, 100 nM PMA
# Description: Radiolabeled Immunoprecipitation Assay—When labeling with [^32P]phosphate, cells were preincubated for 2 h in phosphate-free Dulbecco's modified Eagle's medium containing 0.2% bovine serum albumin and then labeled with 0.1 mCi/ml [^32P]orthophosphate (9000 Ci/mmol, PerkinElmer Life Sciences) for 2 h. For labeling with [^3H]myristic acid or 3H-amino acids, cells were incubated overnight in medium containing 50 μCi/ml [^3H]myristic acid (49 Ci/mmol, PerkinElmer Life Sciences) or 0.2 mCi/ml [^3H]leucine (159 Ci/mmol, PerkinElmer Life Sciences) plus 0.4 mCi/ml [^3H]proline (100 Ci/mmol, PerkinElmer Life Sciences). Following labeling, cells were exposed to stimulatory reagents for 5 min. When an inhibitor was used, cells were preincubated with the inhibitor for 15 min prior to stimulation. At the end of the treatments, cells were lysed in a buffer containing 50 mM Tris-HCl (pH 7.5), 150 mM NaCl, 1 mM EDTA, 10% glycerol, 1% Nonidet P-40, 1 mM phenylmethylsulfonyl fluoride, 1 mM benzamidine, 10 μg/ml pepstatin A, and 10 μg/ml leupeptin. Trichloroacetic acid precipitation and scintillation counting may determine the radiolabeling efficiency in each culture. Immunoprecipitation of MARCKS protein was carried out according to the method of Spizz and Blackshear using cell lysates containing equal counts/min. Spizz et al., J. Biol. Chem. 271, 553-562 (1996). Precipitated proteins were resolved by 8% SDS-polyacrylamide gel electrophoresis and visualized by autoradiography. Anti-human MARCKS antibody (2F12) and nonimmune control antibody (6F6) were used in this assay.
# To assess MARCKS or MARCKS-associated protein complexes in different subcellular fractions, radiolabeled and treated cells were scraped into a homogenization buffer (50 mM Tris-HCl (pH 7.5), 10 mM NaCl, 1 mM EDTA, 1 mM phenylmethylsulfonyl fluoride, 1 mM benzamidine, 10 μg/ml pepstatin A, 10 μg/ml leupeptin) and then disrupted by nitrogen cavitation (800 pounds/square inch for 20 min at 4° C.). Cell lysates were centrifuged at 600×g for 10 min at 4° C. to remove nuclei and unbroken cells. Post-nuclear supernatants were separated into membrane and cytosol fractions by ultracentrifugation at 400,000×g for 30 min at 4° C. The membrane pellet was solubilized in the lysis buffer by sonication. Immunoprecipitation was then carried out as described above.
compound,measurement,setting,value
Nc1nc2c(nc(Br)n2[C@@H]2O[C@@H]3COP(=O)(O)O[C@H]3[C@H]2O)c(=O)[nH]1 [8-Br-cGMP],PP1 activity,PP1,remained unchanged
same,PP2A activity,"PP2A; NHBE cells after 8-Br-cGMP, from 0.1",0.3 nmol/min/mg proteins
same,increase of PP2A activity,"PP2A; NHBE cells, 8-Br-cGMP as low as 0.1 μM, p<0.01",approximately 3 fold
same,MPO secretion from LPS-stimulated human neutrophils,[1],little effect
same,MPO secretion from LPS-stimulated canine neutrophils,[2],little effect
same,effect on MARCKS phosphorylation induced by PMA,[3],reversed
